{"source": "paper PMC7617869", "about": "“Molecular glues that inhibit deubiquitylase activity and inflammatory signaling” (Nature Structural & Molecular Biology, 2025)", "key": {"[1]": {"system": "AMSH* (a STAM2–AMSH fusion)", "test": "AMSH* IQF DUB activity assay", "format": "biochemical", "conditions": "Fig. 1e, AMSH*", "protocol": "(§1) IQF assays were performed in DUB reaction buffer containing 50 mM HEPES–NaOH pH 7.0, 100 mM NaCl, 0.1 mg ml^−1 BSA, 1 mM DTT and 0.03% v/v Brij-35. […] The final concentration of BRISC WT, all BRISC mutants, HsBRISCΔLoop, MmBRISC and DrBRISCΔNΔC was 1 nM. Other enzymes were tested at the following concentrations: 5 nM ARISC (FL), 10 nM CfBRISCΔNΔC, 250 nM AMSH* (ref. [43]), 500 nM USP2 and 1 μM trypsin (Sigma, 9002-07-7). For Michaelis–Menten experiments, 1 nM BRISC with 0–1 μM IQF K63-linked diubiquitin substrate was used. Michaelis–Menten analyses and Lineweaver–Burk plots were calculated using GraphPad Prism (version 9.0).\n(§2) To assess enzymatic activity, BRISC complexes were diluted to concentrations between 1 nM and 50 nM. […] Then, 20-μl enzyme reactions were carried out in 384-well black flat-bottom low-flange plates (Corning, 35373). DUB activity was measured using IQF K63-linked diubiquitin (LifeSensors, DU6303) at 50 nM. Cleaved diubiquitin was monitored by measuring fluorescence intensity (excitation, 544 nm; emission, 575 nm; dichroic mirror, 560 nm). Fluorescence intensity was measured every minute for 30 min at 30 °C. Fluorescence intensity units were plotted against time to generate a linear reaction progress curve, where the initial velocity (V0) corresponds to the gradient of the curve (typically achieved within 15 min). IC50 values were calculated using the GraphPad Prism (version 9.0) built-in dose–response equation for inhibitor concentration versus response (variable slope)."}, "trypsin": {"system": "trypsin", "test": "Trypsin IQF diubiquitin selectivity assay", "format": "biochemical", "conditions": "for Normalised V0: Fig. 1e, Trypsin; for TRYPSIN, normalised activity (Ext. 1a): two replicate columns", "protocol": "BRISC DUB activity was measured at room temperature using 1 nM BRISC and 500 nM IQF diubiquitin K63 substrate (LifeSensors, DU6303) in the presence of DMSO and compounds at 10 μM (final concentrations). Assays were performed in 384-well black flat-bottom low-flange plates (Corning, 35373) in buffer containing 50 mM HEPES–NaOH pH 7.0, 100 mM NaCl, 1 mg ml^−1 BSA, 1 mM DTT and 0.03% v/v Brij-35. Then, 10 μl of twofold concentrated enzyme stock was dispensed, followed by transfer of 200 nl of compounds (1 mM stock) using a 384-pin tool and a 15-min incubation at room temperature. Then, 10 μl of twofold concentrated substrate stock was added and the reaction was monitored by measuring fluorescence intensity (excitation, 540 nm; emission, 580 nm) after 20-min incubation at room temperature and ~50% of substrate was consumed. Orthogonal assays for verification of H20 and P12 hit compounds using USP2 (100 nM) and trypsin (125 nM) were performed in identical conditions.\nas §1, §2"}}, "note": "“And” between values parts separate entries of the source, which are not always exact repeats. Equal values may be shown once.", "data": [{"smiles": "O=C(NC1CCNCC1)c1nn(C(=O)c2c(Cl)cccc2Cl)cc1NC(=O)c1c(Cl)cccc1Cl", "note": "[JMS-175-2]", "values": [{"measurement": "Normalised V0", "setting": "[1]; JMS-175-2 1.25984 μM", "value": "0.9861 and 1.185 and 1.256"}, {"measurement": "Normalised V0", "setting": "[1]; JMS-175-2 1.9996 μM", "value": "0.9727 and 1.04 and 1.202"}, {"measurement": "Normalised V0", "setting": "[1]; JMS-175-2 3.159 μM", "value": "1.015 and 1.159 and 1.047"}, {"measurement": "Normalised V0", "setting": "[1]; JMS-175-2 5.19739 μM", "value": "1.314 and 1.221 and 1.023"}, {"measurement": "Normalised V0", "setting": "[1]; JMS-175-2 7.99364 μM", "value": "1.059 and 1.183 and 1.085"}, {"measurement": "Normalised V0", "setting": "[1]; JMS-175-2 12.7839 μM", "value": "0.9322 and 1.462 and 1.072"}, {"measurement": "Normalised V0", "setting": "[1]; JMS-175-2 19.96 μM", "value": "0.9939 and 1.127 and 1.08"}, {"measurement": "Normalised V0", "setting": "[1]; JMS-175-2 31.4999 μM", "value": "1.033 and 1.252 and 1.115"}, {"measurement": "Normalised V0", "setting": "[1]; JMS-175-2 50.147 μM", "value": "0.9855 and 1.172 and 0.9587"}, {"measurement": "Normalised V0", "setting": "[1]; JMS-175-2 79.7601 μM", "value": "0.8988 and 1.1324 and 1.1315"}, {"measurement": "Normalised V0", "setting": "[1]; JMS-175-2 125.99 μM", "value": "0.8758 and 1.102 and 0.8516"}, {"measurement": "Normalised V0", "setting": "[1]; JMS-175-2 199.922 μM", "value": "0.8346 and 1.096 and 1.031"}, {"measurement": "Normalised V0", "setting": "trypsin; JMS-175-2 0.02 μM", "value": "1.129 and 1.522 and 0.9592"}, {"measurement": "Normalised V0", "setting": "trypsin; JMS-175-2 0.0399999 μM", "value": "1.059 and 1.128 and 0.891"}, {"measurement": "Normalised V0", "setting": "trypsin; JMS-175-2 0.0599997 μM", "value": "1.053 and 1.443 and 1.028"}, {"measurement": "Normalised V0", "setting": "trypsin; JMS-175-2 0.0799994 μM", "value": "1.079 and 1.241 and 1.027"}, {"measurement": "Normalised V0", "setting": "trypsin; JMS-175-2 0.119998 μM", "value": "1.132 and 1.572 and 1.058"}, {"measurement": "Normalised V0", "setting": "trypsin; JMS-175-2 0.199996 μM", "value": "1.063 and 1.165 and 0.9014"}, {"measurement": "Normalised V0", "setting": "trypsin; JMS-175-2 0.499975 μM", "value": "1.046 and 1.263 and 0.9518"}, {"measurement": "Normalised V0", "setting": "trypsin; JMS-175-2 0.799936 μM", "value": "1.084 and 1.3 and 1.031"}, {"measurement": "Normalised V0", "setting": "trypsin; JMS-175-2 1.25984 μM", "value": "1.117 and 1.247 and 0.9792"}, {"measurement": "Normalised V0", "setting": "trypsin; JMS-175-2 1.9996 μM", "value": "1.2322 and 1.34 and 0.9526"}, {"measurement": "Normalised V0", "setting": "trypsin; JMS-175-2 3.159 μM", "value": "1.104 and 1.275 and 0.8695"}, {"measurement": "Normalised V0", "setting": "trypsin; JMS-175-2 5.19739 μM", "value": "1.019 and 1.261 and 1.016"}, {"measurement": "Normalised V0", "setting": "trypsin; JMS-175-2 7.99364 μM", "value": "1.1 and 1.362 and 0.8881"}, {"measurement": "Normalised V0", "setting": "trypsin; JMS-175-2 12.7839 μM", "value": "1.055 and 1.3161 and 0.9778"}, {"measurement": "Normalised V0", "setting": "trypsin; JMS-175-2 19.96 μM", "value": "1.0605 and 1.284 and 0.9014"}, {"measurement": "Normalised V0", "setting": "trypsin; JMS-175-2 31.4999 μM", "value": "1.012 and 1.285 and 0.8918"}, {"measurement": "Normalised V0", "setting": "trypsin; JMS-175-2 50.147 μM", "value": "0.965 and 1.142 and 0.7769"}, {"measurement": "Normalised V0", "setting": "trypsin; JMS-175-2 79.7601 μM", "value": "0.9096 and 1.115 and 0.8428"}, {"measurement": "Normalised V0", "setting": "trypsin; JMS-175-2 125.99 μM", "value": "0.8068 and 0.9447 and 0.6574"}, {"measurement": "Normalised V0", "setting": "trypsin; JMS-175-2 199.922 μM", "value": "0.6351 and 0.815 and 0.623"}, {"measurement": "TRYPSIN, normalised activity (Ext. 1a)", "setting": "trypsin; log [compound (μM)] 0.1938, listed as H20", "value": "1.0307 and 1.0157"}, {"measurement": "TRYPSIN, normalised activity (Ext. 1a)", "setting": "trypsin; log [compound (μM)] 0.4949, listed as H20", "value": "1.0959 and 1.0924"}, {"measurement": "TRYPSIN, normalised activity (Ext. 1a)", "setting": "trypsin; log [compound (μM)] 0.7959, listed as H20", "value": "1.0739 and 0.9776"}, {"measurement": "TRYPSIN, normalised activity (Ext. 1a)", "setting": "trypsin; log [compound (μM)] 1.0969, listed as H20", "value": "1.0282 and 0.9851"}, {"measurement": "TRYPSIN, normalised activity (Ext. 1a)", "setting": "trypsin; log [compound (μM)] 1.3979, listed as H20", "value": "0.9308 and 0.8423"}, {"measurement": "TRYPSIN, normalised activity (Ext. 1a)", "setting": "trypsin; log [compound (μM)] 1.6990, listed as H20", "value": "0.8444 and 0.8335"}, {"measurement": "TRYPSIN, normalised activity (Ext. 1a)", "setting": "trypsin; log [compound (μM)] 2.0000, listed as H20", "value": "0.8160 and 0.6662"}, {"measurement": "TRYPSIN, normalised activity (Ext. 1a)", "setting": "trypsin; log [compound (μM)] 2.3010, listed as H20", "value": "0.6941 and 0.5461"}, {"measurement": "TRYPSIN, normalised activity (Ext. 1a)", "setting": "trypsin; log [compound (μM)] -0.1072, listed as H20", "value": "1.2914 and 1.0218"}, {"measurement": "TRYPSIN, normalised activity (Ext. 1a)", "setting": "trypsin; log [compound (μM)] -0.4082, listed as H20", "value": "1.0017 and 0.9864"}, {"measurement": "TRYPSIN, normalised activity (Ext. 1a)", "setting": "trypsin; log [compound (μM)] -0.7093, listed as H20", "value": "0.9551 and 0.9457"}, {"measurement": "TRYPSIN, normalised activity (Ext. 1a)", "setting": "trypsin; log [compound (μM)] -1.7100, normalisation point", "value": 1.0000}]}]}
